# Experimental data: ChEMBL document CHEMBL4673189, “Recent progress in the discovery of ghrelin O-acyltransferase (GOAT) inhibitors” (RSC Med Chem, 2020)
# Non-standard residues stand in square brackets, D forms with d. Residues, ends and D or L forms follow the SMILES beside them. *: point of attachment. Octanoyl = CCCCCCCC(=O)*; X1 = CC(C)C[C@@H](CN)N*; Dap = NC[C@H](N)C(=O)O
# What was measured:
# [1] = target: T1, Membrane-bound ghrelin O-acyltransferase MBOAT4 (Mus musculus, UniProt P0C7A3); experiment: Antagonist activity at mouse GOAT expressed in baculovirus infected sf9 insect cell membrane using ghrelin(1 to 5) pentapeptide as substrate preincubated for 5 mins followed by Palmitoyl-CoA and n-octynoyl-CoA addition and measured after 5 mins by amplex red/H2O2 reagent-based fluorescence method; format: cell membranes
# T1 sequence (P0C7A3 whole entry): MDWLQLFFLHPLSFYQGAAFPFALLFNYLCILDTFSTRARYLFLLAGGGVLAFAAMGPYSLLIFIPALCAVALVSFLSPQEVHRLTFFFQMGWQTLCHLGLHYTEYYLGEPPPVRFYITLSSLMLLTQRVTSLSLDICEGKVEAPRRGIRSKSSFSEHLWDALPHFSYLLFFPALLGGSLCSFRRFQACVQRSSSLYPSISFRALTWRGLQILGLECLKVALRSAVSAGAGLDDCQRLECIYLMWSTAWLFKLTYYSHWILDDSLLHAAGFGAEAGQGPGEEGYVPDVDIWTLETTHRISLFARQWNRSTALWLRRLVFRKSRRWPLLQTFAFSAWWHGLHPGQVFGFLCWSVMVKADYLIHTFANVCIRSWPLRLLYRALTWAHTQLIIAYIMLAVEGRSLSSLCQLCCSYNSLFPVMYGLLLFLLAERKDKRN
# [2] = target: T1, Membrane-bound ghrelin O-acyltransferase MBOAT4; experiment: Inhibition of N-terminal His10-tagged mouse GOAT expressed in baculovirus infected sf9 insect cell membrane using proghrelin-His8 and [3H]octanoyl CoA as substrate by scintillation counting method; format: cell membranes
# [3] = target: Growth hormone secretagogue receptor type 1 (Homo sapiens, UniProt Q92847); experiment: Inhibition of GHSR-1A (unknown origin)
# Sequence of Growth hormone secretagogue receptor type 1 (Q92847 whole entry): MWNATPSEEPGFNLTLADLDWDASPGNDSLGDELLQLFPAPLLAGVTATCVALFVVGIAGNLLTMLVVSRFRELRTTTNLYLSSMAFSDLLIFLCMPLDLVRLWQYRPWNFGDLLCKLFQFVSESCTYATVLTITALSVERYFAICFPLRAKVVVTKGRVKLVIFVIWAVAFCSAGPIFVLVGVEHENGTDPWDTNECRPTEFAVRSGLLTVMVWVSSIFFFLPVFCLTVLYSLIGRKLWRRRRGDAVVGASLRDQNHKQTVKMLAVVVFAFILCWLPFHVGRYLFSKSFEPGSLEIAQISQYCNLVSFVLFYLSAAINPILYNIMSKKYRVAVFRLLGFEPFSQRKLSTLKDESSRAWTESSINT
# [4] = target: T2, Membrane-bound ghrelin O-acyltransferase MBOAT4 (Homo sapiens, UniProt Q96T53); experiment: Inhibition of GOAT (unknown origin)
# T2 sequence (Q96T53 whole entry): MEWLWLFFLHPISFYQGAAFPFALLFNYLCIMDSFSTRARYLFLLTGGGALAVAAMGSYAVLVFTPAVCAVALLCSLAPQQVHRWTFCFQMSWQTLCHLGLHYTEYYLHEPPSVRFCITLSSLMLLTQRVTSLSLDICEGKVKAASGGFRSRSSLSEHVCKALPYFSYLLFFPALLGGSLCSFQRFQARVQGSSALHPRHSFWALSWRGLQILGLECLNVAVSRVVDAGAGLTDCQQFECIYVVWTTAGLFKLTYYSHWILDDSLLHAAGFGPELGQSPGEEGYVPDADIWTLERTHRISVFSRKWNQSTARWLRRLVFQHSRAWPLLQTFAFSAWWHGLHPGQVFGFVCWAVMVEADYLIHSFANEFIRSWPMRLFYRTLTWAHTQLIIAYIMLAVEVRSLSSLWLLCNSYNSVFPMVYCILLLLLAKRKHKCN
# [5] = target: T2, Membrane-bound ghrelin O-acyltransferase MBOAT4; experiment: Inhibition of human GOAT expressed in baculovirus infected sf9 insect cell membrane using GSSFLC-acrylodan and octanoyl-CoA as substrate preincubated for 30 mins followed by substrate addition and measured after 3 hrs by HPLC analysis; format: cell membranes
# [6] = In vivo inhibition of GOAT in C57BL/6 mouse assessed as increase in unacylated-ghrelin level at 3 mg/kg, po BID administered via gavage for 3 days by ELISA relative to control; format: functional; conditions: time 3 day
# [7] = In vivo inhibition of GOAT in C57BL/6 mouse assessed as decrease in plasma acylated ghrelin level at 3 mg/kg, po BID administered via gavage for 3 days by ELISA relative to control; format: functional; conditions: C57BL/6, po, 72 h, time 3 day
# [8] = In vivo inhibition of GOAT in C57BL/6 mouse assessed as reduction in ratio of AG to total-ghrelin at 3 mg/kg, po BID administered via gavage for 3 days by ELISA relative to control; format: functional; conditions: C57BL/6, po, 72 h, time 3 day
# [9] = In vivo inhibition of GOAT in mouse model of HFHC-diet induced obesity assessed as reduction in acyl ghrelin level at 10 mg/kg, po administered once daily for 7 days relative to control; format: functional; conditions: 168 h, time 7 day
# [10] = In vivo inhibition of GOAT in cynomolgus monkey assessed as reduction in plasma acyl ghrelin AUC (0 to 24 hrs) at 10 mg/kg, po administered as single dose measured after 15 mins to 24 hrs relative to control; format: functional; conditions: Macaca fascicularis, 0.25 h
# [11] = target: T2, Membrane-bound ghrelin O-acyltransferase MBOAT4; experiment: Inhibition of human His-tagged GOAT expressed in baculovirus infected Sf9 cell membrane using biotinylated ghrelin peptide/octanoyl-CoA/palmitoyl CoA as substrate incubated for 80 mins by TR-FRET assay; format: cell membranes
# [12] = target: T1, Membrane-bound ghrelin O-acyltransferase MBOAT4; experiment: Inhibition of mouse GOAT expressed in baculovirus infected sf9 insect cell microsomes using biotinylated des-acyl ghrelin and octanoyl-CoA -CoA as substrate incubated for 15 mins by HTRF assay; parameters: species or system Microsome
# [13] = target: T2, Membrane-bound ghrelin O-acyltransferase MBOAT4; experiment: Inhibition of human GOAT expressed in baculovirus infected sf9 insect cell microsomes using biotinylated des-acyl ghrelin and octanoyl-CoA as substrate incubated for 15 mins by HTRF assay; parameters: species or system Microsome
# [14] = target: T2, Membrane-bound ghrelin O-acyltransferase MBOAT4; experiment: Inhibition of human His-tagged GOAT expressed in baculovirus infected Sf9 cell membrane using desacyl-ghrelin-biotin and octanoyl-CoA as substrate incubated for 1 hr by ELISA; format: cell membranes
# [15] = In vivo inhibition of GOAT in C57BL/6 mouse assessed as reduction in ratio of AG to total-ghrelin at 18 mg/kg, po BID administered via gavage for 3 days by ELISA relative to control; format: functional; conditions: C57BL/6, po, 72 h, time 3 day
# [16] = In vivo inhibition of GOAT in C57BL/6 mouse assessed as reduction in ratio of AG to total-ghrelin at 0.3 mg/kg, po BID administered via gavage for 3 days by ELISA relative to control; format: functional; conditions: C57BL/6, po, 72 h, time 3 day
# [17] = In vivo inhibition of GOAT in C57BL/6 mouse assessed as increase in unacylated-ghrelin level at 10 mg/kg, po BID administered via gavage for 3 days by ELISA relative to control; format: functional; conditions: time 3 day
# [18] = In vivo inhibition of GOAT in C57BL/6 mouse assessed as increase in unacylated-ghrelin level at 1 mg/kg, po BID administered via gavage for 3 days by ELISA relative to control; format: functional; conditions: time 3 day
# [19] = In vivo inhibition of GOAT in C57BL/6 mouse assessed as increase in unacylated-ghrelin level at 0.3 mg/kg, po BID administered via gavage for 3 days by ELISA relative to control; format: functional; conditions: time 3 day
# [20] = In vivo inhibition of GOAT in C57BL/6 mouse assessed as decrease in plasma acylated ghrelin level at 10 mg/kg, po BID administered via gavage for 3 days by ELISA relative to control; format: functional; conditions: C57BL/6, po, 72 h, time 3 day
# [21] = In vivo inhibition of GOAT in C57BL/6 mouse assessed as decrease in plasma acylated ghrelin level at 1 mg/kg, po BID administered via gavage for 3 days by ELISA relative to control; format: functional; conditions: C57BL/6, po, 72 h, time 3 day
# [22] = In vivo inhibition of GOAT in C57BL/6 mouse assessed as decrease in plasma acylated ghrelin level at 0.3 mg/kg, po BID administered via gavage for 3 days by ELISA relative to control; format: functional; conditions: C57BL/6, po, 72 h, time 3 day
# [23] = In vivo inhibition of GOAT in C57BL/6 mouse assessed as reduction in ratio of AG to total-ghrelin at 10 mg/kg, po BID administered via gavage for 3 days by ELISA relative to control; format: functional; conditions: C57BL/6, po, 72 h, time 3 day
# [24] = In vivo inhibition of GOAT in C57BL/6 mouse assessed as reduction in ratio of AG to total-ghrelin at 1 mg/kg, po BID administered via gavage for 3 days by ELISA relative to control; format: functional; conditions: C57BL/6, po, 72 h, time 3 day
# [25] = In vivo inhibition of GOAT in C57BL/6 mouse assessed as reduction in ratio of AG to total-ghrelin at 0.1 mg/kg, po BID administered via gavage for 3 days by ELISA relative to control; format: functional; conditions: C57BL/6, po, 72 h, time 3 day
smiles,measurement,setting,value
CCCCCCCCN(C(C)=O)C(CNCc1ccccc1)c1ccc2cc(O)ccc2c1 (centres undefined),IC50,[1],13 µM
CCCCCCCC(=O)OC[C@H](OC(=O)[C@H](CO)NC(=O)CN)C(=O)N[C@@H](Cc1ccccc1)C(=O)N[C@@H](CC(C)C)C(=O)N[C@@H](CO)C(=O)N1CCC[C@H]1C(=O)N[C@@H](CCC(=O)O)C(=O)N[C@@H](Cc1cnc[nH]1)C(=O)N[C@@H](CCC(N)=O)C(=O)N[C@@H](CCCCN)C(=O)N[C@@H](C)C(=O)N[C@@H](CCC(N)=O)C(=O)N[C@@H](CCC(N)=O)C(=O)N[C@@H](CCCNC(=N)N)C(=O)N[C@@H](CCCCN)C(=O)N[C@@H](CCC(=O)O)C(=O)N[C@@H](CO)C(=O)N[C@@H](CCCCN)C(=O)N[C@@H](CCCCN)C(=O)N1CCC[C@H]1C(=O)N1CCC[C@H]1C(=O)N[C@@H](C)C(=O)N[C@@H](CCCCN)C(=O)N[C@@H](CC(C)C)C(=O)N[C@@H](CCC(N)=O)C(=O)N1CCC[C@H]1C(=O)N[C@@H](CCCNC(=N)N)C(=O)O,IC50,[2],7 µM
C[C@@H](O)[C@H](NC(=O)[C@@H]1CCCN1C(=O)[C@H](CO)NC(=O)[C@H](Cc1cccc2ccccc12)NC(=O)[C@H](CN)NC(=O)[C@H](CO)NC(=O)CN)C(N)=O (HELM PEPTIDE1{G.S.[NC[C@H](N[*:1])C(=O)[*:2]].[O=C([C@H](Cc1cccc2ccccc12)N[*:1])[*:2]].S.P.T.[am]}$$$$V2.0),IC50,[3],100 µM
same,IC50,[4],0.006 µM
CCCC[C@H]1C[C@H](C(=O)NC[C@H]2CCCN2C(=O)[C@@H](NC(=S)CNC)C(C)(C)C)C1,IC50,[2],0.03 µM
CCCCCCCC(=O)NC[C@H](NC(=O)[C@H](CO)NC(=O)CN)C(=O)N[C@@H](Cc1ccccc1)C(=O)N[C@H](CN)CC(C)C (H-GS[Dap](Octanoyl)F-X1),IC50,[2],1 µM
CC1(C)C(=O)C(C#N)=C[C@]2(C)[C@H]3CC[C@]4(C)CCC[C@H]4[C@@H]3CC[C@@H]12,IC50,[5],8 µM
COC(=O)N[C@@H](C)C(=O)N1CCC(CCc2c(N)nc(C)nc2Cl)CC1,fold change (FC),[6],2.9
same,inhibition in vivo at 3 mg/kg,[7],66%
same,inhibition in vivo at 3 mg/kg,[8],82%
CCCCCCCC(=O)OC[C@H](NC(=O)[C@H](CO)NC(=O)CN)C(=O)N[C@@H](Cc1ccccc1)C(=O)N[C@H](CN)CC(C)C (H-GSS(Octanoyl)F-X1),IC50,[2],45 µM
CCCCCCN(C(C)=O)C(CNCc1ccccc1)c1ccc2cc(O)ccc2c1 (centres undefined),IC50,[1],7.5 µM
O=C(O)Cc1csc2cc(O[C@H]3CCc4ncccc43)cc(Cl)c12,inhibition in vivo at 10 mg/kg,[9],28%
same,inhibition in vivo at 10 mg/kg,[10],51%
same,IC50,[11],< 0.05 µM
CCCCCCC[C@](C)(O)/C=C/[C@H](NC(=O)OCc1ccccc1)C(=O)OC,IC50,[2],50 µM
O=C(O)c1ccc2oc(SCc3ccc(Cl)cc3Cl)nc2c1,IC50,[12],0.0033 µM
same,IC50,[13],0.0086 µM
C[C@H](NC(=O)c1ccn(C)n1)C(=O)N1CCC(CCc2c(N)nc(N)nc2Cl)CC1,IC50,[14],0.0689 µM
same,inhibition in vivo at 18 mg/kg,[15],86%
C[C@H](NC(=O)C1CC1)C(=O)N1CCC(CCc2c(N)nc(N)nc2Cl)CC1,inhibition in vivo at 0.3 mg/kg,[16],39%
same,fold change (FC),[17],2.9
same,fold change (FC),[6],2.53
same,fold change (FC),[18],2.82
same,fold change (FC),[19],2.24
same,inhibition in vivo at 10 mg/kg,[20],48%
same,inhibition in vivo at 3 mg/kg,[7],45%
same,inhibition in vivo at 1 mg/kg,[21],5%
same,inhibition in vivo at 0.3 mg/kg,[22],-1%
same,IC50,[14],0.192 µM
same,inhibition in vivo at 10 mg/kg,[23],77%
same,inhibition in vivo at 3 mg/kg,[8],71%
same,inhibition in vivo at 1 mg/kg,[24],54%
Cc1nc(C(F)(F)F)nc(N)c1CCC1CCN(C(=O)[C@H](C)NC(=O)c2ccnn2C)CC1,inhibition in vivo at 0.3 mg/kg,[16],62%
same,inhibition in vivo at 10 mg/kg,[23],82%
same,inhibition in vivo at 3 mg/kg,[8],82%
same,inhibition in vivo at 1 mg/kg,[24],79%
same,inhibition in vivo at 0.1 mg/kg,[25],57%
CCCCCCC[C@H](O)/C=C/[C@H](NC(=O)OCc1ccccc1)C(=O)OC,IC50,[2],90 µM
